In paper PMC10766964, “Copper-catalyzed synthesis of pyrazolo[1,5-a]pyrimidine based triazole-linked glycohybrids: mechanistic insights and bio-applications” (Scientific Reports, 2024):

Key:
[1] = test system: MCF-7 (hormone receptor/HR-positive breast cancer cells); test: MTT cell viability assay in MCF-7 cells; type: cell-based; details: Homo sapiens, MCF7, 72 h, concentrations 10 µM, 25 µM and 50 μM in Fig. 10, read-out: IC50 against MCF-7 breast cancer cells line
[2] = test system: MDA-MB-453 (HER2 positive breast cancer cells); test: MTT cell viability assay in MDA-MB-453 cells; type: cell-based, human; details: for viability at 1 µM / viability at 10 µM / viability at 25 µM: Homo sapiens, read-out: Cell viability (%) ± SD; for viability at 1 µM: MDA-MB-453, 1 µM; for viability at 10 µM: MDA-MB-453, 10 µM; for viability at 25 µM: MDA-MB-453, 25 µM; for IC50 value against MDA-MB-453 cells (in words): tested at 1 µM, 10 µM and 25 µM
Procedure: MDA-MB-231 represents a specific subtype known as triple-negative breast cancer (TNBC). The investigation study was extended with active six hit compounds (9a, 9d, 9h, 10d, 10f, and 11g) in two other different cancer cell lines (MCF-7 and MDA-MB-453), each representing a separate class of breast cancers (MCF-7: hormone receptor/HR-positive; MDA-MB-453: human epidermal growth factor 2 receptor/HER2 positive). […] We also included normal mammary epithelial MCF-10A cells in our experiments to confirm if the growth-inhibitory activities of the selected compounds are truly cancer cell-specific. The activity data from MCF-7 and MDA-MB-453 cell lines (tested at 1 µM, 10 µM and 25 µM) and activity data from MCF-10A cell line (tested at 25 µM, 50 µM and 100 µM) are summarized in Table 3. To evaluate cell viability, the MTT assay was conducted following standard procedures. After 72 h of cell incubation with or without each compound, cell viability was assessed using MTT (3-(4,5-dimethylthiazol-2-yl)-2,5-diphenyltetrazolium bromide), which is a colorimetric method for determining the number of viable cells in various assays including proliferation, cytotoxicity, or chemosensitivity. The MTT reagent was added to the cells after removal of the medium and incubated for 3 h at 37 °C in the CO2 incubator. The formazan product, which is […] in the tissue culture medium, was dissolved in DMSO, and the absorbance of the formazan product was directly measured at 595 nm using a multimode plate reader without additional processing. The absorbance values are directly proportional to the number of viable cells in culture. The percentage of viable cells in each group was determined relative to the untreated control cells.

[3] = test system: MDA-MB-231 (human breast cancer) cell line; test: MTT cell viability assay in MDA-MB-231 cells; type: cell-based; details: for inhibition at 25 µM: MDA-MB-231, 25 μM concentration; for IC50: MDA-MB-231, MTT, concentrations 10, 25 and 50 µM, n = 3, read-out: IC50 against MDA-MB-231 breast cancer cell line; for IC50 / viability at 10 µM / viability at 25 µM / viability at 50 µM: 72 h; for viability at 10 µM / viability at 25 µM / viability at 50 µM: Table 2, MDA-MB-231, MTT, read-out: Cell viability (%) ± SD
Outline: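 MDA-MB-231 cells in DMEM/10% FBS, used before passage 8, exposed to compounds at several concentrations for 72 h at 37 °C. MTT added for 3 h; formazan dissolved in DMSO and read at 595 nm. Viability expressed as percent of untreated control.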

[4] = test system: normal mammary epithelial MCF-10A cells; test: MTT cell viability assay in normal MCF-10A cells; type: cell-based; details: tested at 25 µM, 50 µM and 100 µM
Procedure: (§1) We also included normal mammary epithelial MCF-10A cells in our experiments to confirm if the growth-inhibitory activities of the selected compounds are truly cancer cell-specific. The activity data from MCF-7 and MDA-MB-453 cell lines (tested at 1 µM, 10 µM and 25 µM) and activity data from MCF-10A cell line (tested at 25 µM, 50 µM and 100 µM) are summarized in Table 3. To evaluate cell viability, the MTT assay was conducted following standard procedures. After 72 h of cell incubation with or without each compound, cell viability was assessed using MTT (3-(4,5-dimethylthiazol-2-yl)-2,5-diphenyltetrazolium bromide), which is a colorimetric method for determining the number of viable cells in various assays including proliferation, cytotoxicity, or chemosensitivity. The MTT reagent was added to the cells after removal of the medium and incubated for 3 h at 37 °C in the CO2 incubator. The formazan product, which is […] in the tissue culture medium, was dissolved in DMSO, and the absorbance of the formazan product was directly measured at 595 nm using a multimode plate reader without additional processing. The absorbance values are directly proportional to the number of viable cells in culture. The percentage of viable cells in each group was determined relative to the untreated control cells.

[5] = MTT cell viability assay in normal MCF-10A cells; type: cell-based; details: human, MCF-10A normal mammary epithelial cells, MCF-10A normal cells, read-out: Cell viability (%) ± SD
Procedure: as §1

CC(=O)OC[C@H]1O[C@@H](n2cc(COc3cc(-c4ccc(Cl)cc4)nc4ccnn34)nn2)[C@H](OC(C)=O)[C@@H](OC(C)=O)[C@@H]1OC(C)=O [Compound 9d, (2R,3R,4S,5R,6R)-2-(acetoxymethyl)-6-(4-(((5-(4-chlorophenyl)pyrazolo[1,5-a]pyrimidin-7-yl)oxy)methyl)-1H-1,2,3-triazol-1-yl)tetrahydro-2H-pyran-3,4,5-triyl triacetate]
IC50 [1]: 15.3 µM | viability at 1 µM [2]: 80.8 ± 3.2% | viability at 10 µM [2]: 82.2 ± 11.5% | viability at 25 µM [2]: 65.3 ± 5.8% | IC50 value against MDA-MB-453 cells (in words) [2]: did not reach up to IC50 value | inhibition at 25 µM [3]: ~50% | IC50 [3]: 43.1 µM | viability at 10 µM [3]: 75.6 ± 9.76% | viability at 25 µM [3]: 61 ± 8.47% | viability at 50 µM [3]: 58.6 ± 5.61% | growth inhibitory activity against normal breast epithelial cell (MCF-10A) (in words) [4]: none of these compounds did have any growth inhibitory activity | viability at 72 h, 25 µM [5]: 87.8 ± 2.8% | viability at 72 h, 50 µM [5]: 85.6 ± 0.7% | viability at 72 h, 100 µM [5]: 82 ± 1.5%

CC(=O)OC[C@H]1O[C@@H](n2cc(COc3cc(-c4ccc(C(F)(F)F)cc4)nc4ccnn34)nn2)[C@H](OC(C)=O)[C@@H](OC(C)=O)[C@H]1OC(C)=O [Compound 10f, (2R,3S,4S,5R,6R)-2-(acetoxymethyl)-6-(4-(((5-(4-(trifluoromethyl)phenyl)pyrazolo[1,5-a]pyrimidin-7-yl)oxy)methyl)-1H-1,2,3-triazol-1-yl)tetrahydro-2H-pyran-3,4,5-triyl triacetate]
IC50 [1]: 42.1 µM | viability at 1 µM [2]: 92.5 ± 4.6% | viability at 10 µM [2]: 80.9 ± 1.2% | viability at 25 µM [2]: 66.8 ± 1.7% | IC50 value against MDA-MB-453 cells (in words) [2]: did not reach up to IC50 value | inhibition at 25 µM [3]: ~50% | IC50 [3]: 31.2 µM | viability at 10 µM [3]: 69.4 ± 5.36% | viability at 25 µM [3]: 45.1 ± 3.32% | viability at 50 µM [3]: 41.2 ± 1.26% | growth inhibitory activity against normal breast epithelial cell (MCF-10A) (in words) [4]: none of these compounds did have any growth inhibitory activity | viability at 72 h, 25 µM [5]: 86.6 ± 1.5% | viability at 72 h, 50 µM [5]: 88.1 ± 2.8% | viability at 72 h, 100 µM [5]: 84.2 ± 3%

CC(=O)OC[C@H]1O[C@@H](n2cc(COc3cc(-c4ccc5ccccc5c4)nc4ccnn34)nn2)[C@H](OC(C)=O)[C@@H](OC(C)=O)[C@@H]1OC(C)=O [Compound 9h, (2R,3R,4S,5R,6R)-2-(acetoxymethyl)-6-(4-(((5-(naphthalen-2-yl)pyrazolo[1,5-a]pyrimidin-7-yl)oxy)methyl)-1H-1,2,3-triazol-1-yl)tetrahydro-2H-pyran-3,4,5-triyl triacetate]
IC50 [1]: 21.1 µM | viability at 1 µM [2]: 105 ± 8.1% | viability at 10 µM [2]: 74.8 ± 1.5% | viability at 25 µM [2]: 66.4 ± 3.2% | IC50 value against MDA-MB-453 cells (in words) [2]: did not reach up to IC50 value | inhibition at 25 µM [3]: ~50% | IC50 [3]: 35.9 µM | viability at 10 µM [3]: 96.6 ± 3.36% | viability at 25 µM [3]: 55.2 ± 7.06% | viability at 50 µM [3]: 42.8 ± 5.04% | growth inhibitory activity against normal breast epithelial cell (MCF-10A) (in words) [4]: none of these compounds did have any growth inhibitory activity | viability at 72 h, 25 µM [5]: 86.8 ± 5.3% | viability at 72 h, 50 µM [5]: 88.8 ± 3% | viability at 72 h, 100 µM [5]: 68.5 ± 3.4%

CC(=O)OC[C@H]1O[C@@H](n2cc(COc3cc(-c4ccc(C)cc4)nc4ccnn34)nn2)[C@H](OC(C)=O)[C@@H](OC(C)=O)[C@@H]1OC(C)=O [Compound 9a, (2R,3R,4S,5R,6R)-2-(acetoxymethyl)-6-(4-(((5-(p-tolyl)pyrazolo[1,5-a]pyrimidin-7-yl)oxy)methyl)-1H-1,2,3-triazol-1-yl)tetrahydro-2H-pyran-3,4,5-triyl triacetate]
IC50 [1]: 35.4 µM | viability at 1 µM [2]: 80.6 ± 8% | viability at 10 µM [2]: 86.4 ± 5.4% | viability at 25 µM [2]: 78.1 ± 5.7% | IC50 value against MDA-MB-453 cells (in words) [2]: did not reach up to IC50 value | inhibition at 25 µM [3]: ~50% | IC50 [3]: 29.6 µM | viability at 10 µM [3]: 70.1 ± 9.53% | viability at 25 µM [3]: 51 ± 9.19% | viability at 50 µM [3]: 35.3 ± 4.29% | growth inhibitory activity against normal breast epithelial cell (MCF-10A) (in words) [4]: none of these compounds did have any growth inhibitory activity | viability at 72 h, 25 µM [5]: 88.6 ± 1.5% | viability at 72 h, 50 µM [5]: 84.3 ± 2.9% | viability at 72 h, 100 µM [5]: 84.2 ± 3%

CC(=O)OC[C@H]1O[C@H](n2cc(COc3cc(-c4ccc(C(C)C)cc4)nc4ccnn34)nn2)[C@@H](OC(C)=O)[C@@H](OC(C)=O)[C@@H]1OC(C)=O [Compound 11g, (2R,3R,4S,5S,6S)-2-(acetoxymethyl)-6-(4-(((5-(4-isopropylphenyl)pyrazolo[1,5-a]pyrimidin-7-yl)oxy)methyl)-1H-1,2,3-triazol-1-yl)tetrahydro-2H-pyran-3,4,5-triyl triacetate]
IC50 [1]: 18.3 µM | viability at 1 µM [2]: 95.4 ± 4.8% | viability at 10 µM [2]: 76.4 ± 5.4% | viability at 25 µM [2]: 96.1 ± 35.7% | IC50 value against MDA-MB-453 cells (in words) [2]: did not reach up to IC50 value | inhibition at 25 µM [3]: ~50% | IC50 [3]: 38.8 µM | viability at 10 µM [3]: 66.7 ± 8.21% | viability at 25 µM [3]: 54.3 ± 6.12% | viability at 50 µM [3]: 45.3 ± 4.11% | growth inhibitory activity against normal breast epithelial cell (MCF-10A) (in words) [4]: none of these compounds did have any growth inhibitory activity | viability at 72 h, 25 µM [5]: 89.8 ± 2.8% | viability at 72 h, 50 µM [5]: 84.2 ± 5.8% | viability at 72 h, 100 µM [5]: 88 ± 1.5%

CC(=O)OC[C@H]1O[C@@H](n2cc(COc3cc(-c4ccc(Cl)cc4)nc4ccnn34)nn2)[C@H](OC(C)=O)[C@@H](OC(C)=O)[C@H]1OC(C)=O [Compound 10d, (2R,3S,4S,5R,6R)-2-(acetoxymethyl)-6-(4-(((5-(4-chlorophenyl)pyrazolo[1,5-a]pyrimidin-7-yl)oxy)methyl)-1H-1,2,3-triazol-1-yl)tetrahydro-2H-pyran-3,4,5-triyl triacetate]
IC50 [1]: 40.1 µM | viability at 1 µM [2]: 88.8 ± 5.2% | viability at 10 µM [2]: 78.3 ± 4.7% | viability at 25 µM [2]: 69.6 ± 5.3% | IC50 value against MDA-MB-453 cells (in words) [2]: did not reach up to IC50 value | inhibition at 25 µM [3]: ~50% | IC50 [3]: 29.1 µM | viability at 10 µM [3]: 56.7 ± 8.23% | viability at 25 µM [3]: 53.3 ± 6.32% | viability at 50 µM [3]: 41 ± 4.91% | growth inhibitory activity against normal breast epithelial cell (MCF-10A) (in words) [4]: none of these compounds did have any growth inhibitory activity | viability at 72 h, 25 µM [5]: 89.6 ± 2.2% | viability at 72 h, 50 µM [5]: 85.6 ± 1.7% | viability at 72 h, 100 µM [5]: 84.4 ± 2.6%
